Assay results reported in the supplement of paper PMC10307832.

Assays:
Assay in all cases: relative viability (nuclei count vs DMSO), 5 days (fraction); higher = more cells survive
[1] = tested on: 201T
Procedure, shortened: (§1)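 A single step with final 0.05% Triton X-100, 1% formaldehyde and 1 ug/ml Hoechst fixed the cells and stained nuclei 5 days after treatment. Lung cancer cell lines in 1536-well plates had been treated by pin tool the day after seeding with one drug alone or a fixed anchor-drug dose plus five library-drug doses (not always all listed) in √10 steps, and nuclei were counted on 4× images. Relative viability is the ratio of nuclei in treated wells to nuclei in vehicle wells, taken as the median of duplicate plates.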

[2] = tested on: BEN
Procedure, shortened: as §1

[3] = tested on: EMC-BAC-2
Procedure, shortened: as §1

[4] = tested on: HARA
Procedure, shortened: as §1

[5] = tested on: HCC-44
Procedure, shortened: as §1

[6] = tested on: LOU-NH91
Procedure, shortened: as §1

[7] = tested on: NCI-H1395
Procedure, shortened: as §1

[8] = tested on: NCI-H1993
Procedure, shortened: as §1

[9] = tested on: NCI-H2023
Procedure, shortened: as §1

[10] = tested on: NCI-H2087
Procedure, shortened: as §1

[11] = tested on: NCI-H2126
Procedure, shortened: as §1

[12] = tested on: NCI-H2347
Procedure, shortened: as §1

[13] = tested on: NCI-H23
Procedure, shortened: as §1

[14] = tested on: NCI-H3122
Procedure, shortened: as §1

[15] = tested on: NCI-H596
Procedure, shortened: as §1

[16] = tested on: NCI-H647
Procedure, shortened: as §1

[17] = tested on: NCI-H650
Procedure, shortened: as §1

[18] = tested on: NCI-H727
Procedure, shortened: as §1

[19] = tested on: NCI-H838
Procedure, shortened: as §1

O=c1cc(-c2cccc3c2Sc2ccccc2S3)oc(N2CCOCC2)c1 + CS(=O)(=O)CCNCc1ccc(-c2ccc3ncnc(Nc4ccc(OCc5cccc(F)c5)c(Cl)c4)c3c2)o1 [Lapatinib] (partner 2 µM)
relative viability ([1]; first compound 0.08 µM): 1.02
relative viability ([1]; first compound 0.253 µM): 1.09
relative viability ([1]; first compound 0.8 µM): 0.915
relative viability ([1]; first compound 2.53 µM): 0.951
relative viability ([1]; first compound 8 µM): 1
relative viability ([2]; first compound 0.08 µM): 0.703
relative viability ([2]; first compound 0.253 µM): 0.706
relative viability ([2]; first compound 0.8 µM): 0.81
relative viability ([2]; first compound 2.53 µM): 0.734
relative viability ([2]; first compound 8 µM): 1.05
relative viability ([3]; first compound 0.08 µM): 0.873
relative viability ([3]; first compound 0.253 µM): 0.987
relative viability ([3]; first compound 0.8 µM): 0.887
relative viability ([3]; first compound 2.53 µM): 0.865
relative viability ([3]; first compound 8 µM): 0.929
relative viability ([4]; first compound 0.08 µM): 0.662
relative viability ([4]; first compound 0.253 µM): 0.751
relative viability ([4]; first compound 0.8 µM): 0.562
relative viability ([4]; first compound 2.53 µM): 0.632
relative viability ([4]; first compound 8 µM): 0.719
relative viability ([5]; first compound 0.08 µM): 1.05
relative viability ([5]; first compound 0.253 µM): 1.21
relative viability ([5]; first compound 0.8 µM): 0.977
relative viability ([5]; first compound 2.53 µM): 0.928
relative viability ([5]; first compound 8 µM): 1.14
relative viability ([6]; first compound 0.08 µM): 0.707
relative viability ([6]; first compound 0.253 µM): 0.803
relative viability ([6]; first compound 0.8 µM): 0.554
relative viability ([6]; first compound 2.53 µM): 0.751
relative viability ([6]; first compound 8 µM): 0.732
relative viability ([7]; first compound 0.08 µM): 0.971
relative viability ([7]; first compound 0.253 µM): 1.04
relative viability ([7]; first compound 0.8 µM): 1.02
relative viability ([7]; first compound 2.53 µM): 1.16
relative viability ([7]; first compound 8 µM): 0.949
relative viability ([8]; first compound 0.08 µM): 0.773
relative viability ([8]; first compound 0.253 µM): 0.802
relative viability ([8]; first compound 0.8 µM): 0.849
relative viability ([8]; first compound 2.53 µM): 0.875
relative viability ([8]; first compound 8 µM): 0.844
relative viability ([9]; first compound 0.08 µM): 0.767
relative viability ([9]; first compound 0.253 µM): 1.03
relative viability ([9]; first compound 0.8 µM): 0.748
relative viability ([9]; first compound 2.53 µM): 0.571
relative viability ([9]; first compound 8 µM): 0.94
relative viability ([10]; first compound 0.08 µM): 0.981
relative viability ([10]; first compound 0.253 µM): 0.98
relative viability ([10]; first compound 0.8 µM): 1.13
relative viability ([10]; first compound 2.53 µM): 0.959
relative viability ([10]; first compound 8 µM): 1.4
relative viability ([11]; first compound 0.08 µM): 0.715
relative viability ([11]; first compound 0.253 µM): 0.801
relative viability ([11]; first compound 0.8 µM): 0.679
relative viability ([11]; first compound 2.53 µM): 0.679
relative viability ([11]; first compound 8 µM): 0.796
relative viability ([12]; first compound 0.08 µM): 0.978
relative viability ([12]; first compound 0.253 µM): 1.09
relative viability ([12]; first compound 0.8 µM): 1.02
relative viability ([12]; first compound 2.53 µM): 1.04
relative viability ([12]; first compound 8 µM): 1.19
relative viability ([13]; first compound 0.08 µM): 1.1
relative viability ([13]; first compound 0.253 µM): 1.34
relative viability ([13]; first compound 0.8 µM): 1.14
relative viability ([13]; first compound 2.53 µM): 0.868
relative viability ([13]; first compound 8 µM): 1.17
relative viability ([14]; first compound 0.08 µM): 1.03
relative viability ([14]; first compound 0.253 µM): 1.15
relative viability ([14]; first compound 0.8 µM): 1
relative viability ([14]; first compound 2.53 µM): 0.96
relative viability ([14]; first compound 8 µM): 1.02
relative viability ([15]; first compound 0.08 µM): 1.06
relative viability ([15]; first compound 0.253 µM): 1.06
relative viability ([15]; first compound 0.8 µM): 0.95
relative viability ([15]; first compound 2.53 µM): 0.894
relative viability ([15]; first compound 8 µM): 1.22
relative viability ([16]; first compound 0.08 µM): 1.19
relative viability ([16]; first compound 0.253 µM): 1.21
relative viability ([16]; first compound 0.8 µM): 0.985
relative viability ([16]; first compound 2.53 µM): 0.886
relative viability ([16]; first compound 8 µM): 0.83
relative viability ([17]; first compound 0.08 µM): 0.819
relative viability ([17]; first compound 0.253 µM): 0.84
relative viability ([17]; first compound 0.8 µM): 1.16
relative viability ([17]; first compound 2.53 µM): 0.706
relative viability ([17]; first compound 8 µM): 0.842
relative viability ([18]; first compound 0.253 µM): 1.17
relative viability ([18]; first compound 2.53 µM): 0.802
relative viability ([18]; first compound 8 µM): 1.16
relative viability ([19]; first compound 0.08 µM): 0.973
relative viability ([19]; first compound 0.253 µM): 1.36
relative viability ([19]; first compound 0.8 µM): 0.844
relative viability ([19]; first compound 2.53 µM): 0.969
relative viability ([19]; first compound 8 µM): 0.953
